According to US20260035382A1, “COMPOUNDS AS SUMO ACTIVATING ENZYME INHIBITORS” (WIGEN BIOMEDICINE TECHNOLOGY (SHANGHAI) CO., LTD., priority 2022, published 2026):

Tested on: not listed separately
Experiment: In vivo pharmacokinetic experiment, intravenous administration
Conditions: CD-1 female mice, 2 mpk
Description: CD-1 female mice aged 6 to 8 weeks were intravenously administered at a dose of 2 mg/kg. The mice were fasted for at least 12 h before the administration and given food after the administration, and they were given ad libitum access to water during the experiment. On the day of the experiment, animals in the intravenous group were administered the corresponding compound by single injection via the tail vein at an administration volume of 0.2 mL/animal. The sample collection time was 0.083 h, 0.167 h, 0.5 h, 1 h, 2 h, 4 h, 8 h, and 24 h. About 150 μL of whole blood was collected through the submaxillary venous plexus at each time point (30 μL of whole blood was diluted with ultrapure water at a ratio of 1:3, and 120 μL of whole blood was centrifuged to obtain plasma) and used for concentration determination by high-performance liquid chromatography-tandem mass spectrometry (LC-MS/MS). All animals were sacrificed after the PK samples were collected at the last time point. The plasma concentration was processed using a non-compartmental model of Phoenix WinNonlin™ version 8.3 (Certara) pharmacokinetic software, and the pharmacokinetic parameters were calculated using a linear-log trapezoidal method.

Row | SMILES | Whole blood AUClast/plasma AUClast ratio | Whole blood Cmax/plasma Cmax ratio
1 | NS(=O)(=O)OC[C@H]1C[C@@H](Nc2ncncc2C(=O)c2cc3c(s2)CCC[C@]32NCCc3ccc(Cl)cc32)C[C@@H]1O [Compound 6] | 39.0 | 19.7

Same assay, conditions: CD-1 female mice, 2 mpk, plasma (Table 5)

Row | SMILES | Plasma AUClast [ng·h/mL]
2 | NS(=O)(=O)OC[C@H]1C[C@@H](Nc2ncncc2C(=O)c2cc3c(s2)CCC[C@]32NCCc3ccc(Cl)cc32)C[C@@H]1O [Compound 6] | 881

Same assay, conditions: mouse, 2 mg/kg, CD-1 female mice, 2 mpk, plasma

Row | SMILES | C0 [ng/mL] | clearance [mL/min/kg] | half-life [h]
3 | NS(=O)(=O)OC[C@H]1C[C@@H](Nc2ncncc2C(=O)c2cc3c(s2)CCC[C@]32NCCc3ccc(Cl)cc32)C[C@@H]1O [Compound 6] | 1080 | 36.9 | 1.45

Same assay, conditions: mouse, 2 mg/kg, CD-1 female mice, 2 mpk, plasma, read-out: AUClast

Row | SMILES | AUC(0-t) [ng·h/mL]
4 | NS(=O)(=O)OC[C@H]1C[C@@H](Nc2ncncc2C(=O)c2cc3c(s2)CCC[C@]32NCCc3ccc(Cl)cc32)C[C@@H]1O [Compound 6] | 881

Same assay, conditions: mouse, 2 mg/kg, CD-1 female mice, 2 mpk, plasma, read-out: Cmax

Row | SMILES | Cmax [ng/mL]
5 | NS(=O)(=O)OC[C@H]1C[C@@H](Nc2ncncc2C(=O)c2cc3c(s2)CCC[C@]32NCCc3ccc(Cl)cc32)C[C@@H]1O [Compound 6] | 798

Same assay, conditions: mouse, 2 mg/kg, CD-1 female mice, 2 mpk, plasma, read-out: Vdss

Row | SMILES | Vd [L/kg]
6 | NS(=O)(=O)OC[C@H]1C[C@@H](Nc2ncncc2C(=O)c2cc3c(s2)CCC[C@]32NCCc3ccc(Cl)cc32)C[C@@H]1O [Compound 6] | 3.5

Same assay, conditions: mouse, 2 mg/kg, CD-1 female mice, 2 mpk, whole blood, read-out: Whole blood AUClast

Row | SMILES | AUC(0-t) [ng·h/mL]
7 | NS(=O)(=O)OC[C@H]1C[C@@H](Nc2ncncc2C(=O)c2cc3c(s2)CCC[C@]32NCCc3ccc(Cl)cc32)C[C@@H]1O [Compound 6] | 34400

Same assay, conditions: mouse, 2 mg/kg, CD-1 female mice, 2 mpk, whole blood, read-out: Whole blood Cmax

Row | SMILES | Cmax [ng/mL]
8 | NS(=O)(=O)OC[C@H]1C[C@@H](Nc2ncncc2C(=O)c2cc3c(s2)CCC[C@]32NCCc3ccc(Cl)cc32)C[C@@H]1O [Compound 6] | 15800

Molecular target: SAE (Homo sapiens (Human), UniProt Q9UBT2)
Experiment: In vitro inhibitory activity assay against SAE (SUMO-2/3 immunofluorescence in HCT116 cells)
Assay type: cell-based
Conditions: 6 h incubation, class symbols, read-out: SUMO IF IC50
Outline: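 HCT116 cells treated with compounds for 6 h at 37 °C, then fixed, permeabilized and immunostained for SUMO-2/3 with FITC secondary detection. Fluorescence compared with DMSO control to give inhibition rate and IC50.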

Chain of SAE (Q9UBT2 whole entry): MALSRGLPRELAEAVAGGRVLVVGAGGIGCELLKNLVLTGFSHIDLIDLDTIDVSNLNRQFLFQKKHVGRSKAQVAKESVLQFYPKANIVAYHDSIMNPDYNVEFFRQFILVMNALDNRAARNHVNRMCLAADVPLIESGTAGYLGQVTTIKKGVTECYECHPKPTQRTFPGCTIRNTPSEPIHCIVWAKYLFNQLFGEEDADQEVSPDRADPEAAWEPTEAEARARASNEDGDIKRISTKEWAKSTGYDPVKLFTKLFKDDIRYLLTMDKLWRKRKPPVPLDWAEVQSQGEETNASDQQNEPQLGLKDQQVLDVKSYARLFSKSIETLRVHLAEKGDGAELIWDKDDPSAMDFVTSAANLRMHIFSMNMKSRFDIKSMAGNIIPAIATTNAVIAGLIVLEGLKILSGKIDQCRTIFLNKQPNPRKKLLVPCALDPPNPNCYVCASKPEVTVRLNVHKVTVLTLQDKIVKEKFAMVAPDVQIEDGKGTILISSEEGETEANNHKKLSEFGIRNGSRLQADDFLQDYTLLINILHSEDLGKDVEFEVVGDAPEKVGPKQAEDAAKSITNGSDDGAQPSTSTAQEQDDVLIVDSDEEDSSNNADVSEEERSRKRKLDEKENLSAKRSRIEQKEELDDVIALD
Chain of SAE (Q9UBE0 whole entry partner): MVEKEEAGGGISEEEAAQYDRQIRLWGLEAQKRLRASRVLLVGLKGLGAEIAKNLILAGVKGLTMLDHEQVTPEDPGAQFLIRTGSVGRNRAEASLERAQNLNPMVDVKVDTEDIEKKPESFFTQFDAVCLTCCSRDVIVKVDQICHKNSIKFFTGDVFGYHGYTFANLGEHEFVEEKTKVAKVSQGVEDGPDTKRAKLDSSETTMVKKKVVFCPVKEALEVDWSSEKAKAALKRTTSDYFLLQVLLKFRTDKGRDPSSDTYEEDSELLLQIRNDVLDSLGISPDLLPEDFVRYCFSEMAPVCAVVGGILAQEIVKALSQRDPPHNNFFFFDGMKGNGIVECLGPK

Row | SMILES | IC50 [nM]
9 | CN1Cc2sc(C(=O)c3cncnc3N[C@@H]3C[C@H](COS(N)(=O)=O)[C@@H](O)C3)cc2C2(C1)OCCc1ccc(Cl)cc12 (stereo partly drawn) [Compound 259] | ≤ 50
10 | CN1Cc2sc(C(=O)c3cncnc3N[C@@H]3C[C@H](COS(N)(=O)=O)[C@@H](O)C3)cc2[C@@]2(C1)OCCc1ccc(Cl)cc12 [Compound 260] | > 200
11 | CN1Cc2sc(C(=O)c3cncnc3N[C@@H]3C[C@H](COS(N)(=O)=O)[C@@H](O)C3)cc2[C@]2(C1)OCCc1ccc(Cl)cc12 [Compound 261] | ≤ 50
12 | CCN1Cc2sc(C(=O)c3cncnc3N[C@@H]3C[C@H](COS(N)(=O)=O)[C@@H](O)C3)cc2C2(C1)OCCc1ccc(F)cc12 (stereo partly drawn) [Compound 262] | 50 to 200
13 | CCN1Cc2sc(C(=O)c3cncnc3N[C@@H]3C[C@H](COS(N)(=O)=O)[C@@H](O)C3)cc2[C@@]2(C1)OCCc1ccc(F)cc12 [Compound 263] | > 200
14 | CCN1Cc2sc(C(=O)c3cncnc3N[C@@H]3C[C@H](COS(N)(=O)=O)[C@@H](O)C3)cc2[C@]2(C1)OCCc1ccc(F)cc12 [Compound 264] | ≤ 50
15 | CCN1Cc2sc(C(=O)c3cncnc3N[C@@H]3C[C@H](COS(N)(=O)=O)[C@@H](O)C3)cc2C2(C1)OCCc1ccc(Cl)cc12 (stereo partly drawn) [Compound 265] | ≤ 50
16 | CCN1Cc2sc(C(=O)c3cncnc3N[C@@H]3C[C@H](COS(N)(=O)=O)[C@@H](O)C3)cc2[C@@]2(C1)OCCc1ccc(Cl)cc12 [Compound 266] | > 200
17 | CCN1Cc2sc(C(=O)c3cncnc3N[C@@H]3C[C@H](COS(N)(=O)=O)[C@@H](O)C3)cc2[C@]2(C1)OCCc1ccc(Cl)cc12 [Compound 267] | ≤ 50
18 | CC(C)N1Cc2sc(C(=O)c3cncnc3N[C@@H]3C[C@H](COS(N)(=O)=O)[C@@H](O)C3)cc2C2(C1)OCCc1ccc(F)cc12 (stereo partly drawn) [Compound 268] | 50 to 200
19 | CC(C)N1Cc2sc(C(=O)c3cncnc3N[C@@H]3C[C@H](COS(N)(=O)=O)[C@@H](O)C3)cc2[C@@]2(C1)OCCc1ccc(F)cc12 [Compound 269] | > 200
20 | CC(C)N1Cc2sc(C(=O)c3cncnc3N[C@@H]3C[C@H](COS(N)(=O)=O)[C@@H](O)C3)cc2[C@]2(C1)OCCc1ccc(F)cc12 [Compound 270] | ≤ 50
21 | CC(C)N1Cc2sc(C(=O)c3cncnc3N[C@@H]3C[C@H](COS(N)(=O)=O)[C@@H](O)C3)cc2C2(C1)OCCc1ccc(Cl)cc12 (stereo partly drawn) [Compound 271] | 50 to 200
22 | CC(C)N1Cc2sc(C(=O)c3cncnc3N[C@@H]3C[C@H](COS(N)(=O)=O)[C@@H](O)C3)cc2[C@@]2(C1)OCCc1ccc(Cl)cc12 [Compound 272] | > 200
23 | CC(C)N1Cc2sc(C(=O)c3cncnc3N[C@@H]3C[C@H](COS(N)(=O)=O)[C@@H](O)C3)cc2[C@]2(C1)OCCc1ccc(Cl)cc12 [Compound 273] | ≤ 50
24 | NS(=O)(=O)OC[C@H]1C[C@@H](Nc2ncncc2C(=O)c2cc3c(s2)CN(C2CC2)C[C@@]32OCCc3ccc(F)cc32)C[C@@H]1O [Compound 275] | > 200
25 | NS(=O)(=O)OC[C@H]1C[C@@H](Nc2ncncc2C(=O)c2cc3c(s2)CN(C2CC2)C[C@]32OCCc3ccc(F)cc32)C[C@@H]1O [Compound 276] | ≤ 50
26 | NS(=O)(=O)OC[C@H]1C[C@@H](Nc2ncncc2C(=O)c2cc3c(s2)CN(C2CC2)CC32OCCc3ccc(Cl)cc32)C[C@@H]1O (stereo partly drawn) [Compound 277] | 50 to 200
27 | NS(=O)(=O)OC[C@H]1C[C@@H](Nc2ncncc2C(=O)c2cc3c(s2)CN(C2CC2)C[C@@]32OCCc3ccc(Cl)cc32)C[C@@H]1O [Compound 278] | > 200
28 | NS(=O)(=O)OC[C@H]1C[C@@H](Nc2ncncc2C(=O)c2cc3c(s2)CN(C2CC2)C[C@]32OCCc3ccc(Cl)cc32)C[C@@H]1O [Compound 279] | ≤ 50
29 | NS(=O)(=O)OC[C@H]1C[C@@H](Nc2ncncc2C(=O)c2cc3c(s2)CCC32OCCc3ccccc32)C[C@@H]1O (stereo partly drawn) [Compound 280] | > 200

Row | SMILES | IC50 [nM]
30 | NS(=O)(=O)OC[C@H]1C[C@@H](Nc2ncncc2C(=O)c2cc3c(s2)CC[C@@]32OCCc3ccccc32)C[C@@H]1O [Compound 281] | > 200
31 | NS(=O)(=O)OC[C@H]1C[C@@H](Nc2ncncc2C(=O)c2cc3c(s2)CC[C@]32OCCc3ccccc32)C[C@@H]1O [Compound 282] | 50 to 200
32 | NS(=O)(=O)OC[C@H]1C[C@@H](Nc2ncncc2C(=O)c2cc3c(s2)CCC32OCCc3ccc(F)cc32)C[C@@H]1O (stereo partly drawn) [Compound 283] | 50 to 200
33 | NS(=O)(=O)OC[C@H]1C[C@@H](Nc2ncncc2C(=O)c2cc3c(s2)CC[C@@]32OCCc3ccc(F)cc32)C[C@@H]1O [Compound 284] | > 200
34 | NS(=O)(=O)OC[C@H]1C[C@@H](Nc2ncncc2C(=O)c2cc3c(s2)CC[C@]32OCCc3ccc(F)cc32)C[C@@H]1O [Compound 285] | 50 to 200
35 | N#Cc1ccc2c(c1)C1(CCc3sc(C(=O)c4cncnc4N[C@@H]4C[C@H](COS(N)(=O)=O)[C@@H](O)C4)cc31)OCC2 (stereo partly drawn) [Compound 286] | 50 to 200
36 | N#Cc1ccc2c(c1)[C@]1(CCc3sc(C(=O)c4cncnc4N[C@@H]4C[C@H](COS(N)(=O)=O)[C@@H](O)C4)cc31)OCC2 [Compound 287] | > 200
37 | N#Cc1ccc2c(c1)[C@@]1(CCc3sc(C(=O)c4cncnc4N[C@@H]4C[C@H](COS(N)(=O)=O)[C@@H](O)C4)cc31)OCC2 [Compound 288] | ≤ 50
38 | NS(=O)(=O)OC[C@H]1C[C@@H](Nc2ncncc2C(=O)c2cc3c(s2)C=CC32OCCc3ccccc32)C[C@@H]1O (stereo partly drawn) [Compound 289] | 50 to 200
39 | NS(=O)(=O)OC[C@H]1C[C@@H](Nc2ncncc2C(=O)c2cc3c(s2)C=C[C@@]32OCCc3ccccc32)C[C@@H]1O [Compound 290] | > 200
40 | NS(=O)(=O)OC[C@H]1C[C@@H](Nc2ncncc2C(=O)c2cc3c(s2)C=C[C@]32OCCc3ccccc32)C[C@@H]1O [Compound 291] | 50 to 200
41 | NS(=O)(=O)OC[C@H]1C[C@@H](Nc2ncncc2C(=O)c2cc3c(s2)C=CC32OCCc3ccc(F)cc32)C[C@@H]1O (stereo partly drawn) [Compound 292] | 50 to 200
42 | NS(=O)(=O)OC[C@H]1C[C@@H](Nc2ncncc2C(=O)c2cc3c(s2)C=C[C@@]32OCCc3ccc(F)cc32)C[C@@H]1O [Compound 293] | > 200
43 | NS(=O)(=O)OC[C@H]1C[C@@H](Nc2ncncc2C(=O)c2cc3c(s2)C=C[C@]32OCCc3ccc(F)cc32)C[C@@H]1O [Compound 294] | ≤ 50
44 | NS(=O)(=O)OC[C@H]1C[C@@H](Nc2ncncc2C(=O)c2cc3c(s2)C=CC32OCCc3ccc(Cl)cc32)C[C@@H]1O (stereo partly drawn) [Compound 295] | ≤ 50
45 | NS(=O)(=O)OC[C@H]1C[C@@H](Nc2ncncc2C(=O)c2cc3c(s2)C=C[C@@]32OCCc3ccc(Cl)cc32)C[C@@H]1O [Compound 296] | > 200
46 | NS(=O)(=O)OC[C@H]1C[C@@H](Nc2ncncc2C(=O)c2cc3c(s2)C=C[C@]32OCCc3ccc(Cl)cc32)C[C@@H]1O [Compound 297] | ≤ 50
47 | N#Cc1ccc2c(c1)C1(C=Cc3sc(C(=O)c4cncnc4N[C@@H]4C[C@H](COS(N)(=O)=O)[C@@H](O)C4)cc31)OCC2 (stereo partly drawn) [Compound 298] | 50 to 200
48 | N#Cc1ccc2c(c1)[C@]1(C=Cc3sc(C(=O)c4cncnc4N[C@@H]4C[C@H](COS(N)(=O)=O)[C@@H](O)C4)cc31)OCC2 [Compound 299] | > 200
49 | N#Cc1ccc2c(c1)[C@@]1(C=Cc3sc(C(=O)c4cncnc4N[C@@H]4C[C@H](COS(N)(=O)=O)[C@@H](O)C4)cc31)OCC2 [Compound 300] | ≤ 50

Same assay, conditions: 6 h incubation, numeric values, read-out: SUMO IF IC50

Row | SMILES | IC50 [nM]
50 | NS(=O)(=O)OC[C@H]1C[C@@H](Nc2ncncc2C(=O)c2cc3c(s2)CCC[C@]32NCCc3ccc(Cl)cc32)C[C@@H]1O [Compound 6] | 27.8
51 | Cc1sc(C(=O)c2cncnc2N[C@@H]2C[C@H](COS(N)(=O)=O)[C@@H](O)C2)cc1[C@@H]1NCCc2ccc(Cl)cc21 [TAK-981, reference compound] | 53.2
